Data on seven compounds can be found in patent US8288411B2, “Pyrrolidines and piperidines as orexin receptor antagonists” (Actelion Pharmaceuticals Ltd., priority 2007, dated 2012).

Where two headings read alike, the source gives them in different places.

One may read the IC50 as the concentration that gives 50% inhibition.

One experiment addresses T1, human orexin-1 receptor (Homo sapiens, UniProt O43613).
T1 construct: expressed in transfected cells; host or cells: CHO cells (G418 selection)
T1 sequence (O43613 1-425): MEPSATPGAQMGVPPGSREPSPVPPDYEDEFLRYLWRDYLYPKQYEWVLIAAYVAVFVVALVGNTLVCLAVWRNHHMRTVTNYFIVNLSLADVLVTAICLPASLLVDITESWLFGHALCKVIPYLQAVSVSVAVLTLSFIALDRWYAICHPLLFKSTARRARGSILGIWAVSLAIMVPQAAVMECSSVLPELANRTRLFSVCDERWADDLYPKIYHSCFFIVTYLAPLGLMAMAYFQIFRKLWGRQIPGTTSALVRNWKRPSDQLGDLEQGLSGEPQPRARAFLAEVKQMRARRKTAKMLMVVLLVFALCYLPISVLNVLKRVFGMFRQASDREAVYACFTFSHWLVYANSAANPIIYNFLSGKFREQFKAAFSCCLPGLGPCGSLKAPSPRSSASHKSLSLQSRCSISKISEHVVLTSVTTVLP
The experiment in a line: FLIPR intracellular calcium assay, orexin receptor antagonistic activity, CHO cells expressing human orexin-1 receptor. Type of experiment: cell-based. The following applies: read-out: OX1 IC50. Here is the method: (§1) The orexin receptor antagonistic activity of the compounds of formula (I) is determined in accordance with one of the following experimental methods.
(§2) Chinese hamster ovary (CHO) cells expressing the human orexin-1 receptor and the human orexin-2 receptor, respectively, are grown in culture medium (Ham F-12 with L-Glutamine) containing 300 μg/ml G418, 100 U/ml penicillin, 100 μg/ml streptomycin and 10% heat inactivated fetal calf serum (FCS). The cells are seeded at 20'000 cells/well into 384-well black clear bottom sterile plates (Greiner). The seeded plates are incubated overnight at 37° C. in 5% CO2.
(§3) Human orexin-A as an agonist is prepared as 1 mM stock solution in MeOH: water (1:1), diluted in HBSS containing 0.1% bovine serum albumin (BSA), NaHCO3: 0.375 g/l and 20 mM HEPES for use in the assay at a final concentration of 3 nM.
(§4) Antagonists are prepared as 10 mM stock solution in DMSO, then diluted in 384-well plates, first in DMSO, then in HBSS containing 0.1% bovine serum albumin (BSA), NaHCO3: 0.375 g/l and 20 mM HEPES.
(§5) On the day of the assay, 50 μl of staining buffer (HBSS containing 1% FCS, 20 mM HEPES, NaHCO3: 0.375 g/l, 5 mM probenecid (Sigma) and 3 μM of the fluorescent calcium indicator fluo-4 AM (1 mM stock solution in DMSO, containing 10% pluronic) is added to each well.
(§6) The 384-well cell-plates are incubated for 50 min at 37° C. in 5% CO2 followed by equilibration at RT for 30-120 min before measurement.
(§7) Within the Fluorescent Imaging Plate Reader (FLIPR2 or FLIPR Tetra, Molecular Devices), antagonists are added to the plate in a volume of 10 μl/well, incubated for 10 min and finally 10 μl/well of agonist is added. Fluorescence is measured for each well at 1 second intervals, and the height of each fluorescence peak is compared to the height of the fluorescence peak induced by 3 nM orexin-A with vehicle in place of antagonist. For each antagonist, the IC50 value (the concentration of compound needed to inhibit 50% of the agonistic response) is determined. Optimized conditions may be achieved by adjustment of pipetting speed and cell splitting regime. The calculated IC50 values of the compounds may fluctuate depending on the daily cellular assay performance. Fluctuations of this kind are known to those skilled in the art.
On the technique in general: A change in cytosolic calcium serves as a functional read-out for many receptors and channels.

The target in a further experiment is T2, human orexin-2 receptor (Homo sapiens, UniProt O43614).
T2 construct: expressed in transfected cells; host or cells: CHO cells (G418 selection)
T2 sequence (O43614 1-444): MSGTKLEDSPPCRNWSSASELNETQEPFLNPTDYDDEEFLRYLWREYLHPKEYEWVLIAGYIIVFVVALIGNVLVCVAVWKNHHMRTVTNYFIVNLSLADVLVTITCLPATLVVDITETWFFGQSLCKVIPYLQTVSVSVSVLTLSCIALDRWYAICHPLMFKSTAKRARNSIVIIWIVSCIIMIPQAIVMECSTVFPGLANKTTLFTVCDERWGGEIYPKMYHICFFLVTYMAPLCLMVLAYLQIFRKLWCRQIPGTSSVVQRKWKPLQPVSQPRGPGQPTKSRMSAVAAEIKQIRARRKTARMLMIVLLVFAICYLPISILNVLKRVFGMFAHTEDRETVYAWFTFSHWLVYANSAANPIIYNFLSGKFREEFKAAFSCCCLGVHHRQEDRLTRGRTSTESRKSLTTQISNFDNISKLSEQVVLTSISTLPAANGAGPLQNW
The experiment in a line: FLIPR intracellular calcium assay, orexin receptor antagonistic activity, CHO cells expressing human orexin-2 receptor. The following applies: read-out: OX2 IC50. Type of experiment: cell-based. The protocol:
as §1, §2, §3, §4, §5, §6, §7

Setting [1] is: measured with FLIPR 2, 3 nM orexin-A as agonist.
The mark [2] stands for this setting: marked with *: measured with FLIPR Tetra, 3 nM orexin-A as agonist.

Turning to `Cc1nc2sccn2c1C(=O)NC[C@@H]1CCCCN1C(=O)c1nc(-c2ccc(F)cc2)sc1-c1ccc(F)cc1` [Example 3], the IC50 on human orexin-1 receptor (setting [1]) came to 1 nM; on human orexin-2 receptor (setting [1]), 24 nM.
On to `COc1cccc(-c2nc(C(=O)N3CCCC[C@H]3CNC(=O)c3c(C)nc4sccn34)c(-c3ccc(F)cc3)s2)c1` [Example 5, (S)-6-methyl-imidazo[2,1-b]thiazole-5-carboxylic acid{1-[5-(4-fluoro-phenyl)-2-(3-methoxy-phenyl)-thiazole-4-carbonyl]-piperidin-2-ylmethyl}-amide], for which the results for the IC50 at human orexin-1 receptor (setting [1]) and on human orexin-2 receptor (setting [1]) were 2 nM and 7 nM, respectively.
As for `O=C(NC[C@@H]1CCCCN1C(=O)c1nc(-c2ccccc2)sc1-c1ccccc1F)c1cccc2c1CCO2` [Example 17, (S)-2,3-dihydro-benzofuran-4-carboxylic acid{1-[5-(2-fluoro-phenyl)-2-phenyl-thiazole-4-carbonyl]-piperidin-2-ylmethyl}-amide], the IC50 came out at 20 nM on human orexin-1 receptor (setting [2]) and 68 nM at human orexin-2 receptor (setting [2]).
Consider `Cn1cc(C(=O)NC[C@@H]2CCCCN2C(=O)c2nc(-c3ccccc3)sc2-c2ccccc2F)c2ccccc21` [Example 24, (S)-1-methyl-1H-indole-3-carboxylic acid{1-[5-(2-fluoro-phenyl)-2-phenyl-thiazole-4-carbonyl]-piperidin-2-ylmethyl}-amide], for which the IC50 worked out at 10 nM at human orexin-1 receptor (setting [2]) and 60 nM at human orexin-2 receptor (setting [2]).
Consider `Cc1ccc(-c2sc(-c3ccccc3)nc2C(=O)N2CCCC[C@H]2CNC(=O)c2c(C)nc3sccn23)cc1` [Example 38, (S)-6-methyl-imidazo[2,1-b]thiazole-5-carboxylic acid[1-(2-phenyl-5-p-tolyl-thiazole-4-carbonyl)-piperidin-2-ylmethyl]-amide], for which the values for the half-inhibitory concentration (IC50) at human orexin-1 receptor (setting [1]) and on human orexin-2 receptor (setting [1]) were 2 nM and 8 nM, respectively.
Regarding `Cn1nc(C(=O)NC[C@@H]2CCCN2C(=O)c2nc(-c3cccnc3)sc2-c2cccc(Cl)c2)c2ccccc21` [Example 44, (S)-1-methyl-1H-indazole-3-carboxylic acid{1-[5-(3-chloro-phenyl)-2-pyridin-3-yl-thiazole-4-carbonyl]-pyrrolidin-2-ylmethyl}-amide], the figures for the IC50 on human orexin-1 receptor (setting [2]) and at human orexin-2 receptor (setting [2]) were 9 nM and 18 nM, respectively.
With `Cc1cccc(-c2nc(C(=O)N3CCC[C@H]3CNC(=O)c3c(C)nc4sccn34)c(-c3ccc(F)cc3)s2)c1` [Example 45, (S)-6-methyl-imidazo[2,1-b]thiazole-5-carboxylic acid{1-[5-(4-fluoro-phenyl)-2-m-tolyl-thiazole-4-carbonyl]-pyrrolidin-2-ylmethyl}-amide], the IC50 at human orexin-1 receptor (setting [1]) was determined as 1 nM; at human orexin-2 receptor (setting [1]), 12 nM.
